Test results published in patent US4780281A, “Method for assay of peroxidase enzyme or reducing substrate activity” (Wayne State University, priority 1985, dated 1988).

T1: Horseradish peroxidase (HRP) (Armoracia rusticana, UniProt P00433)
T1 construct: purchased Sigma Chemical Corporation Type VI
T1 sequence (P00433 31-338 limits assumed): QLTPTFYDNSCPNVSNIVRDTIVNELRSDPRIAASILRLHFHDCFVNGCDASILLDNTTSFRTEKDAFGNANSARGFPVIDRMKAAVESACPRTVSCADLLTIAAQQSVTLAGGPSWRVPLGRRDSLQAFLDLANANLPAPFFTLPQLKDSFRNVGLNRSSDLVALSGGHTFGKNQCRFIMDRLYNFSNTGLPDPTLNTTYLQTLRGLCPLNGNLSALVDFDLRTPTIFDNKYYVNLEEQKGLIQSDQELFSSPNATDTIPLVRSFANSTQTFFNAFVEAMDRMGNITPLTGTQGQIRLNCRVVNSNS

T2: Prostaglandin H Synthase (Ovis aries, UniProt P05979)
T2 sequence (P05979 25-600): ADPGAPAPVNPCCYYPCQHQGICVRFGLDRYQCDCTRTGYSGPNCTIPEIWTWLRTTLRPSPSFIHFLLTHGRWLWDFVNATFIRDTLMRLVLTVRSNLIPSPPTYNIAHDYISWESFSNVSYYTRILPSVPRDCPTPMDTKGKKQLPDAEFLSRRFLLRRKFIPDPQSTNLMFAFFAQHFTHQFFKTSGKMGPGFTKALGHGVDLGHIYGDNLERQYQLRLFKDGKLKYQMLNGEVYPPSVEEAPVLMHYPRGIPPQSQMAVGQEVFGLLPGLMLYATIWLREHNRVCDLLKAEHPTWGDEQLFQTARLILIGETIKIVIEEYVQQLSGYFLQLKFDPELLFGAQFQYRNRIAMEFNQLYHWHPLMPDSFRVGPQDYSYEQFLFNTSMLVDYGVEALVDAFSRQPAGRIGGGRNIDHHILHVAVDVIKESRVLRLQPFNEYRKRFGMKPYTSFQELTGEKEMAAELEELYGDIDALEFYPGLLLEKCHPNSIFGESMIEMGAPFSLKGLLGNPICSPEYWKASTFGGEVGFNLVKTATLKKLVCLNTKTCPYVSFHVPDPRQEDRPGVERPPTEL


Substrate: OOCCC/C=C/c1ccccc1
Assay: Spectrophotometric assay of Chance & Maehly for guaiacol oxidation
Format: biochemical, horseradish
Conditions: other: estimated
Excerpt: Apparent Km values for reducing substrates and enzymatic turnover numbers are readily determined by the steady-state kinetic assay.

Molecule	Km
HRP (Armoracia rusticana) (protein, purchased Sigma Chemical Corporation Type VI) QLTPTFYDNSCPNVSNIVRDTIVNELRSDPRIAASILRLHFHDCFVNGCDASILLDNTTSFRTEKDAFGNANSARGFPVIDRMKAAVESACPRTVSCADLLTIAAQQSVTLAGGPSWRVPLGRRDSLQAFLDLANANLPAPFFTLPQLKDSFRNVGLNRSSDLVALSGGHTFGKNQCRFIMDRLYNFSNTGLPDPTLNTTYLQTLRGLCPLNGNLSALVDFDLRTPTIFDNKYYVNLEEQKGLIQSDQELFSSPNATDTIPLVRSFANSTQTFFNAFVEAMDRMGNITPLTGTQGQIRLNCRVVNSNS	18 µM

Biological target: T1, Horseradish peroxidase (HRP)
Assay: Reducing substrate specificity assay (HRP-catalysed reduction of PPHP to PPA, HPLC)
Format: biochemical
Conditions: 60 nM HRP, 200 microM reducing substrate, 100 microM PPHP, 0.1 M potassium citrate pH 5.5, 0.2 mM Tween-20, 25° C., 6 minutes, triplicate
Protocol: Incubations were performed in triplicate with a 25° C. shaker bath in 16×150 mm disposable glass test tubes. 60 nM HRP was incubated at 25° C. in 0.1 M potassium citrate buffer, […] containing 0.2 mM Tween 20, with 100 microM PPHP and 200 microM potential reducing substrate. The index value is defined as, Index=concentration PPA/(concentration PPA+concentration PPHP). Most reducing substrates were prepared daily as 8 mM stocks in either water, methanol, or methanol:water (1:1 v/v). DPBF was dissolved in acetone. Uric acid was dissolved in DMSO. Epinephrine required titration with dilute hydrochloric acid prior to dissolution in methanol. Indoleacetic acid, tryptophan, cysteine, and methionine were titrated with dilute potassium hydroxide prior to dissolution in methanol:water (1:1 v/v).
For the data in Table 1 hereinafter, reducing substrates (50 microliters of 8 mM stocks--see Table 1 for preparation) were transferred into 1.9 ml of 0.1 M potassium citrate buffer, pH 5.5, containing 0.2 mM Tween-20 and allowed to thermally equilibrate for 10 minutes. HRP (24 microl of a 5 microM stock) was added to each trial and preincubated for three minutes prior to the addition of PPHP (25 microl of 8 mM stock in methanol). Incubations were stopped at 6 minutes by pouring mixtures onto Baker SPE System columns (3 ml octyldecylsilyl, from J. T. Baker & Co.). The columns were prepared prior to use by passing 3×3 ml aliquots of water through the columns with the Baker SPE vacuum system. At the stop time, an individual trial was poured onto the column and aspirated to near dryness. Each individual trial was set aside until the reminder of the trials were treated in the same manner. After all incubation trials were partitioned onto the SPE columns, each individual incubation tube was washed with 2 ml of 0.2 mM Tween 20 in distilled water and poured onto the corresponding SPE column. This Tween 20/water wash was aspirated to near dryness with vacuum. Analytes were eluted into 12×76 mm disposable glass test tubes with 2×1 ml aliquots of methanol (HPLC grade, Fisher Scientific Co.). The sample collection rack for the Baker 10 SPE System was modified to accommodate these 12 mm diameter tubes. The SPE columns were aspirated dry at this point and discarded. An internal chromatographic standard of p-nitrobenzyl alcohol (25 microl of 8 mM stock solution in methanol) was added to each methanol eluent, mixed by vortexing, and then clarified by filtration through a 0.45 micron nylon Swinney type filter (Rainin Instrument Corp.). The filtered eluents were used directly for chromatographic analysis.
The Initial incubation conditions were 0.1 M potassium citrate buffer, pH 5.5, with 0.2 mM Tween 20, 200 microM reducing substrate, 60 nM HRP and […] PPHP (structure 1).
Quantitation was determined by adding an internal standard (p-nitrobenzyl alcohol: annotated as I.S. on chromatograms) and ratioing peak areas. Chromatograms are 40 microliters injections onto a 5 micron Zorbax octylsilyl reverse-phase column (DuPont Instrument Corp.) with an isocratic elution mobile of 56% v/v methanol in water at 2 ml per min. U.V. monitoring was with a fixed 254 nm detector (Varian 5000, Varian Instrument Corp.). Vertical numbers are associated with peak retention times in minutes (the integrator used was a Vista 402 System, Varian Instruments).
Analyte concentrations were calculated by an internal standard method of calculation. This required individual incubation chromatograms to be compared to a calibration chromatogram generated by chromatographing a 40 microliter sample aliquot of a solution of PPHP as described under calculations.

Molecule	Index = concentration PPA/(concentration PPA+concentration PPHP)
CNC[C@H](O)c1ccc(O)c(O)c1 [Epinephrin, d,1-epinephrine]	0.39 ± 0.01
Cc1cc(C(C)(C)C)c(O)c(C(C)(C)C)c1 [BHT, butylated hydroxytoluene]	0.19 ± 0.03
O=C1O[C@H]([C@@H](O)CO)C(O)=C1O [Ascorbic Acid, 1-ascorbic acid]	0.50 ± 0.00
O=c1[nH]c(=O)c2[nH]c(=O)[nH]c2[nH]1 [Uric Acid, uric acid]	0.96 ± 0.00
N[C@@H](Cc1c[nH]c2ccccc12)C(=O)O [Tryptophan, 1-tryptophan]	0.13 ± 0.04
N[C@@H](CCC(=O)N[C@@H](CS)C(=O)NCC(=O)O)C(=O)O [Glutathione, reduced glutathione]	0.07 ± 0.01
N[C@@H](CS)C(=O)O [Cysteine, 1-cysteine]	0.06 ± 0.01
CSCC[C@H](N)C(=O)O [Methionine, d,1-methionine]	0.05 ± 0.01
c1ccc(-c2oc(-c3ccccc3)c3ccccc23)cc1 [DPBF, 1,3-diphenylisobenzofuran]	0.06 ± 0.01
O=C(O)Cc1c[nH]c2ccccc12 [Indoleacetic Acid, indole-3-acetic acid]	0.14 ± 0.01
NC(=O)C1=CN([C@@H]2O[C@H](COP(=O)(O)OP(=O)(O)OC[C@H]3O[C@@H](n4cnc5c(N)ncnc54)[C@H](O)[C@@H]3O)[C@@H](O)[C@H]2O)C=CC1 [NADH, reduced nicotinamide adenine dinucleotide]	0.05 ± 0.00
[I-].[K+] [Iodide, potassium iodide]	0.97 ± 0.02
CCN(CC)C(=S)S [Diethyldithiocarbamate, diethyldithiocarbamic acid]	0.72 ± 0.02
Nc1ccccc1 [Aniline, aniline]	0.97 ± 0.01
COc1ccc(O)c(C(C)(C)C)c1 [BHA, butylated hydroxyanisole]	0.56 ± 0.01
COc1ccccc1O [Guaniacol, guaiacol]	0.97 ± 0.01
Oc1ccc(O)cc1 [Hydroquinone, hydroquinone]	0.97 ± 0.01
NC(=O)C1=CN([C@@H]2O[C@H](COP(=O)(O)OP(=O)(O)OC[C@H]3O[C@@H](n4cnc5c(N)ncnc54)[C@H](OP(=O)(O)O)[C@@H]3O)[C@@H](O)[C@H]2O)C=CC1 [NADPH, reduced nicotinamide adenine dinucleotide phosphate]	0.06 ± 0.01
O=C(O)CCCCC1CCSS1 (racemic) [Lipoic Acid, d,1-thiotic acid]	0.06 ± 0.01

Same assay, conditions: 200 microM reducing substrate, 60 nM HRP, pH 5.5

Molecule	reducing substrate quality for HRP (FIG. 1)
N[C@@H](Cc1c[nH]c2ccccc12)C(=O)O [Tryptophan, 1-tryptophan]	poor
COc1ccc(O)c(C(C)(C)C)c1 [BHA, butylated hydroxyanisole]	moderate

Substrate: Oc1ccccc1
Assay: Steady-state kinetic assay (PPA production, SPE/HPLC)
Format: biochemical, horseradish
Conditions: other: 2.5 nM HRP, 100 microM PPHP, pH 5.5, 4 minutes
Protocol: The incubations were terminated at 2, 4, and 8 minutes by pouring the incubations onto SPE columns as described in Methods. […] The data points are the average of triplicates. […] All buffers contained 0.2 mM Tween-20. Incubations were stopped at 4 minutes by pouring onto SPE columns as described in Methods. Each data point is the average of triplicates. […] Incubations were stopped at 4 minutes by pouring on SPE columns as described in Methods. PPA concentrations were converted into velocities by dividing by the incubation time and assuming linear steady-state velocities over the first 8 minutes (see FIG. 3). Five replicates of each phenol concentration were assayed. Km and Vmax were determined by linear regression analysis upon the non-averaged data points.
We designed the assays with 4 minute termination times converting either the concentration of PPHP or PPA into velocities.

Molecule	Km
HRP (Armoracia rusticana) (protein, purchased Sigma Chemical Corporation Type VI) QLTPTFYDNSCPNVSNIVRDTIVNELRSDPRIAASILRLHFHDCFVNGCDASILLDNTTSFRTEKDAFGNANSARGFPVIDRMKAAVESACPRTVSCADLLTIAAQQSVTLAGGPSWRVPLGRRDSLQAFLDLANANLPAPFFTLPQLKDSFRNVGLNRSSDLVALSGGHTFGKNQCRFIMDRLYNFSNTGLPDPTLNTTYLQTLRGLCPLNGNLSALVDFDLRTPTIFDNKYYVNLEEQKGLIQSDQELFSSPNATDTIPLVRSFANSTQTFFNAFVEAMDRMGNITPLTGTQGQIRLNCRVVNSNS	252 µM

Biological target: T2, Prostaglandin H Synthase
Assay: Reducing substrate efficiency for PPHP reduction, conditions as for Table 1
Format: biochemical
Conditions: not given

Molecule	reducing substrate for PPHP reduction by prostaglandin H synthase
OC1C=Cc2c(cc3ccc4cccc5ccc2c3c45)C1O (centres unmarked) [7,8-dihydroxy-7,8-dihydrobenzo[a]pyrene]	not reducing substrates
c1ccc2c(c1)cc1ccc3cccc4ccc2c1c34 [benzo[a]yrene]	not reducing substrates
c1ccc(-c2oc(-c3ccccc3)c3ccccc23)cc1 [DPBF, 1,3-diphenylisobenzofuran]	not reducing substrates

Same assay, conditions: Prostaglandin H synthase, under the conditions for Table 1

Molecule	Index of Efficiency of Reducing Substrates
CNC[C@H](O)c1ccc(O)c(O)c1 [Epinephrin, d,1-epinephrine]	.92
COc1ccc2c(c1)c(C(C)C(=O)O)c(C)n2Cc1ccc(SC)cc1 (centres unmarked) [MK-410]	.26
CCCCC1C(=O)NN(c2ccccc2)C1=O (centres unmarked) [Monophenylbutazone]	.23
CC(C)(C)c1cc(I)c(O)c(CN)c1 [MK-447]	.72
CC(=O)Oc1ccccc1C(=O)O [Aspirin]	.04
CC(C(=O)O)c1ccc(-c2ccccc2)c(F)c1 (centres unmarked) [Flurbiprofen]	.12
CC1=NN(CCOc2ccc3ccccc3c2)C(=O)C1 [Nafazatrom]	.80
CSc1ccc(/C=C2/C(C)=C(CC(=O)O)c3cc(F)ccc32)cc1 [Sulindac Sulfide]	.96
CCCCC1C(=O)N(c2ccccc2)N(c2ccc(O)cc2)C1=O (centres unmarked) [Oxyphenylbutazone]	.71
O=C(O)Cc1ccccc1Nc1c(Cl)cccc1Cl [Diclofenac]	.50
Cc1cc(NC(=O)C2=C(O)c3ccccc3S(=O)(=O)N2C)no1 [Isoxicam]	.25
Cc1c(CC(=O)O)c2cc(O)ccc2n1C(=O)c1ccc(Cl)cc1 [5-Hydroxy-indomethacin]	.34
CC(C)Cc1ccc(C(C)C(=O)O)cc1 (centres unmarked) [Ibuprofen]	.12
CCCCC1C(=O)N(c2ccccc2)N(c2ccccc2)C1=O [Phenylbutazone]	.23
CSc1ccccc1 [Methylphenyl Sulfide]	.50
Cc1ccc(Cl)c(Nc2ccccc2C(=O)O)c1Cl [Meclofenamate]	.35
O=C(O)c1ccccc1O [Salicylic Acid]	.06
O=C(O)c1ccccc1Nc1cccc(C(F)(F)F)c1 [Flufenamate]	.68
